In patent US9403916B2, “Polysaccharide-and polypeptide-based block copolymers, vesicles constituted by these copolymers and use thereof” (priority 2008, dated 2016):

Columns and labels:
cells of rat glioma C6 = experiment: Cellular viability (toxicity) MTT test; format: cell-based; conditions: 48 h, read-out: IC50 (concentration for which half of the cells remain viable)
Description: Experiments of toxicity and release in vitro were performed using vesicles based on hyaluronic acid-block-poly(γ-benzyl L-glutamate) diblock copolymer prepared in Example 6, containing 11% of doxorubicin. The in-vitro experiments were performed on cells of rat glioma C6, in Dulbecco's modified Eagle's medium (DMEM) containing 5% of foetal calf serum. The C6 cells (5×10^5 cells) are placed in bottles of 10 cm diameter and are grown in 10 ml of culture medium containing penicillin (10000 μg/mL), streptomycin (10000 μg/mL) and amphotericin B (25 μg/mL) [Invitrogen Corporation] in an incubator at 37° C. in a controlled atmosphere with 5% CO2. For the tests of cellular viability (or toxicity), C6 cells were incubated in a 24-well plate (15×10^4 cells per well), for 24 h. Viability was determined by a conventional test with tetrazolium salt MTT (3-(4,5-dimethylthiazol-2-yl)-2,5-diphenyl tetrazolium bromide). The tetrazolium that it contains is reduced to formazan by the mitochondrial succinate dehydrogenase of the active living cells. The colour of the medium then changes from yellow to purplish-blue. The intensity of this coloration is proportional to the number of living cells present during the test. Analysis is performed by spectrophotometry (U-2800A, HITACHI), measuring the absorbance at 570 nm. […]

[1] = test system: DMBA-induced tumour in female Sprague-Dawley rats; experiment: Antitumour efficacy in DMBA-induced tumour, tumour regression and survival; format: in vivo; conditions: rat, single intravenous dose 5 mg/kg doxorubicin
Description: Female Sprague-Dawley rats aged 8 weeks (120-140 g) were used in a study of tumour regression.
7,12-dimethylbenz[α]anthracene (DMBA) was administered orally (in soya oil) to the animals in 3 doses of 45 mg/kg at one-week intervals, to generate the tumour.
The treatment with doxorubicin was given 10 weeks after the last dose of DMBA. The width of the tumour (w) and its length (l) were recorded with callipers and the size of the tumour was calculated from the formula (w×l^2/2).
After 10 weeks from tumour induction, the animals with tumours were separated and divided randomly into different treatment groups, then treated with a single dose of 250 μl of doxorubicin by intravenous route at 5 mg/kg, either in the form of free doxorubicin, or in the form of doxorubicin encapsulated in the micellar vesicles of Example 6.
The control group received a single dose of 250 μl of PBS buffer (pH 7.4) by the intravenous route.
The study was terminated […] after treatment.
Observation of the survival of the animals with a tumour, which were treated, was continued until 60 days after treatment.

## COc1cccc2c1C(=O)c1c(O)c3c(c(O)c1C2=O)C[C@@](O)(C(=O)CO)C[C@@H]3O[C@H]1C[C@H](N)[C@H](O)[C@H](C)O1 [free doxorubicin, doxorubicin]
Cells of rat glioma C6
  IC50: 0.84 µM
[1]
  tumour growth in comparison with control group treated with PBS: significantly inhibit tumour growth
  tumour regression after 15 days of treatment: regression reaches a plateau
